Experimental data reported in patent US20200368364A1, “CYSTEINE PEPTIDE-ENABLED ANTIBODIES” (City of Hope, priority 2016, published 2020).

Experiments:
[1] = tested on: mutated I83 trastuzumab memAb (I83 mutated to glutamate); experiment: SPR of meditope peptide variants binding to immobilized memAb variant; conditions: SPR at 37° C.; original meditope; vs original trastuzumab memAb
Procedure: FIG. 3A-3H. […] FIG. 3E-H) SPR sensograms collected at 37° C.

[2] = tested on: cetuximab or the meditope-enabled trastuzumab; experiment: Lifetime of the meditope-Fab interaction; assay type: binding; conditions: 37° C.
From the text: Since the cyclic, twelve residue peptide binds in a hole that runs through the middle of the Fab arm, Applicants have named it a meditope. Antigen binding is not altered after grafting or in the presence of the meditope^14-15. As such, Applicants understood that they could use the meditope interaction as a hitch for the delivery of cytotoxins, imaging agents, or biologics. […] Applicants further improved the lifetime by creating a mechanical bond by modifying the arginine at position 8 with an azide, threading it through the Fab hole, and using click chemistry to sterically block its dissociation. While the lifetime of this mechanically interlocked Fab complex is difficult to ascertain, Applicants were capable of imaging tumors in animal xenografts.

SKBR3 cells = experiment: Cell viability (CellTiter-Glo) for DM1 and MMAE conjugates; assay type: cell-based; conditions: 72 h, read-out: EC50 (cell viability / lysis)

Substance | increase in affinity with I83 mutated to glutamate [1] | lifetime of the meditope peptide on the Fab [2] | EC50 (SKBR3 cells) [nM]
Ac-CQFDLSTRRLKC-Am (Ac-CQFDLSTRRLKC-NH2; not fully specified (bridges); printed as Ac-CQFDLSTRRLKC-Am; also: cyclic, kind not given here) [original meditope, serine at position 6] | ~25 | seconds | 
trastuzumab emtansine [clinical DM1] |  |  | 0.093
